Measured values from US10167264B2, “Substituted pyrimidines useful as EGFR-T790M kinase inhibitors” (JIANGSU MEDOLUTION LTD, priority 2014, dated 2019).
Entries after “also recorded” stand apart in the source; their conditions may differ.

Tests used:
EGFR (T790M/L858R) = EGFR (T790M/L858R) (Homo sapiens (Human), UniProt P00533, L858R/T790M); assay: In vitro EGFR (T790M/L858R) kinase binding assay (Kd, qPCR readout)
Description: (§1) Kinase-tagged T7 phage strains were prepared in an E. coli host derived from the BL21 strain. E. coli were grown to log-phase and infected with T7 phage and incubated with shaking at 32° C. until lysis. The lysates were centrifuged and filtered to remove cell debris. The remaining kinases were produced in HEK-293 cells and subsequently tagged with DNA for qPCR detection. Streptavidin-coated magnetic beads were treated with biotinylated small molecule ligands for 30 minutes at room temperature to generate affinity resins for kinase assays. The liganded beads were blocked with excess biotin and washed with blocking buffer (SeaBlock (Pierce), 1% BSA, 0.05% Tween 20, 1 mM DTT) to remove unbound ligand and to reduce non-specific binding. […] All reactions were performed in polystyrene 96-well plates in a final volume of 0.135 ml. […] The kinase concentration in the eluates was measured by qPCR.
(§2) An 11-point 3-fold serial dilution of each test compound was prepared in 100% DMSO at 100× final test concentration and subsequently diluted to 1× in the assay (final DMSO concentration=1%). Kds were determined using a compound top concentration=10,000 nM.
Binding constants (Kds) were calculated with a standard dose-response curve using the Hill equation: Response=Background+(Signal−Background)/(1+(Kd^Hill Slope/Dose^Hill Slope)). The Hill Slope was set to −1. Curves were fitted using a non-linear least square fit with the Levenberg-Marquardt algorithm.

EGFR = EGFR (Homo sapiens (Human), UniProt P00533); assay: In vitro EGFR kinase binding assay (Kd), similar condition
Description: as §1, §2
(§3) Binding constants (Kds) were calculated with a standard dose-response curve using the Hill equation: Response=Background+(Signal−Background)/(1+(Kd^Hill Slope/Dose^Hill Slope)). The Hill Slope was set to −1. […]

EGFR (E746-A750del) = EGFR (E746-A750del) (Homo sapiens (Human), UniProt P00533, DEL746-750); assay: In vitro EGFR (E746-A750del) kinase binding assay (Kd), similar condition
Description: as §1, §2, §3

[1] = system: NCI-H1975 cell line xenograft; assay: Subcutaneous NCI-H1975 cell line xenograft model in nude mice; assay type: in vivo; settings: for Efficacy in the NCI-H1975 xenograft study (in words): Day 14; for Tumor growth inhibition (TGI, %) in NCI-H1975 xenograft model: nude mice
Description: A representative protocol for the in vivo experiment is as follows to establish the subcutaneous NCI-H1975 cell line xenograft model in nude mice and to evaluate the in vivo therapeutic efficacy of the compounds: H1975 cells were cultured in RPMI1640 containing 10% fetal bovine serum, 1% L-glutamine, 100 U/mL penicillinG and 100 μg/mL streptomycin. Cells in logarithmic growth phase were harvested and resuspended in 1×PBS for implantation. Tumor xenografts were established by injecting tumor cells 5×10^6/mouse into the right flank by sc under sterile conditions. When the tumors reached an appropriate size (100-200 mm^3), mice were randomized into 6 mice per group (8 mice in control group). The tumors were measured using a caliper in two dimensions, length (a), and width (b). Tumor volumes were estimated from measurements of two diameters of the individual tumors as follows: Tumor Volume (mm^3)=(a×b^2)/2 The tumor sizes and animal body weights were measured twice a week. Mice were observed daily for clinical signs. Blood samples were collected 2 hours after the last treatment, plasma samples were prepared and stored at −80° C. Tumor tissues were separated, weighed, taken picture, and subsequently stored at −80° C. for further analysis. All animal experiments were performed in accordance with the Guidelines for Use and Care of Animals of the University of Traditional Medicine. The parameters for in vivo efficacy evaluation were calculated according to the guidance of SFDA. Percent T/C (%) was calculated with the following formula: T/C(%)=(TRTV/CRTV)×100%, where TRTV and CRTV stand for relative tumor volume in treatment group and vehicle control group, respectively. Relative tumor volume (RTV) was calculated using the formula: RTV=Vt/V0, where Vt represents volume on testing day, and V0 represents volume on first day of treatment. […] At the study endpoint, after blood collection, mice were practised euthanasia by cervical dislocation, the tumor tissue was collected first, then the abdominal cavity was cut open, liver and spleen were excised, and weighted after the gallblader was removed respectively. Organ weights between the treated versus the control groups were compared.

NCI-H1975 = assay: Cell proliferation assay (MTT) against cancer cell line NCI-H1975; assay type: cell-based; settings: Homo sapiens, NCI-H1975, 72 hours treatment, quantity not given
Description: A Representative Number of Compounds were Assayed Against Cancer Cell Lines NCI-H1975, Using the Cell Proliferation Assay:
1. 5×10^3 cells per well in 100 μl of medium were seeded in 96-well plate, while the medium contained 5% FBS
2. 24 hours later, 100 μl fresh medium was added with various concentrations of compounds into each well, while the medium here was free of FBS
3. After the cells were treated with compounds for 72 hours, 20 μl MTT (5 mg/ml) was added into each well, and then the assay plate was incubated at 37° C. for 4 more hours.
4. The assay plate was centrifuged at 800 g for 10 min. The medium was aspirated, 150 μl DMSO was added into each well. The plate was gently shaken for 10 min.
5. The absorbance at 570 nm was measured on the plate reader.

EGFR (T790M/L858R), sequence (P00533 25-1210 T790M/L858R): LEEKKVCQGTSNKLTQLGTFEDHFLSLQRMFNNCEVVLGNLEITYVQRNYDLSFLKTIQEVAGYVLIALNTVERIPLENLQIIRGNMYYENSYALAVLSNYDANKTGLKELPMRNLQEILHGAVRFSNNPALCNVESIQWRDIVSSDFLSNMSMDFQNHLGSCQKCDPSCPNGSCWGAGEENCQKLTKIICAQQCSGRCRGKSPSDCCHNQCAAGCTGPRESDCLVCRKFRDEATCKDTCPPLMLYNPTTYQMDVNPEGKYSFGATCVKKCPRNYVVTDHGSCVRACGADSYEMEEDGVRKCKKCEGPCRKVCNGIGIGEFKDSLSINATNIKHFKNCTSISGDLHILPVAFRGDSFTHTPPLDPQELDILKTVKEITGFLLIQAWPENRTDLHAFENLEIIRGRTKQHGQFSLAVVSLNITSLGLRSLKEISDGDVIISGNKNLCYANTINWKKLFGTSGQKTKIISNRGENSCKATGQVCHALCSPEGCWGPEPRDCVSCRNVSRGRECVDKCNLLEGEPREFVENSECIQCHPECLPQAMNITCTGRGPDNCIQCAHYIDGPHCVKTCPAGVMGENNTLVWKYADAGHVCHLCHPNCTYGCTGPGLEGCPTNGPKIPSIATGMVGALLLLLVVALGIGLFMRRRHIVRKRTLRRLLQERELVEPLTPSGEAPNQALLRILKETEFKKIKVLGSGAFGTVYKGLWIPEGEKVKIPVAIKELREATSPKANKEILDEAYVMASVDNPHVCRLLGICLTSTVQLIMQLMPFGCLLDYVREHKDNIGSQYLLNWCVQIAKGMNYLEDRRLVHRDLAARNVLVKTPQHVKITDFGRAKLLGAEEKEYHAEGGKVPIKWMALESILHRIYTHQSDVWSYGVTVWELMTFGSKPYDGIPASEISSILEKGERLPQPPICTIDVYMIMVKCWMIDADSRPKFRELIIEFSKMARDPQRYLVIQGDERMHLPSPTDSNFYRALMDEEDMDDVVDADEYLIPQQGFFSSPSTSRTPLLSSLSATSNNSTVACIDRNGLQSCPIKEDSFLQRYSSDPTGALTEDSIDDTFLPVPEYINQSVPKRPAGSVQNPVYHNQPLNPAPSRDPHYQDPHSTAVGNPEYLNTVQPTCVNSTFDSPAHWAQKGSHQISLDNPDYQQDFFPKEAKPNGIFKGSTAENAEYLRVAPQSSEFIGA
EGFR (E746-A750del), sequence (P00533 other isoform, or with tags, fused parts or gaps del E746-A750): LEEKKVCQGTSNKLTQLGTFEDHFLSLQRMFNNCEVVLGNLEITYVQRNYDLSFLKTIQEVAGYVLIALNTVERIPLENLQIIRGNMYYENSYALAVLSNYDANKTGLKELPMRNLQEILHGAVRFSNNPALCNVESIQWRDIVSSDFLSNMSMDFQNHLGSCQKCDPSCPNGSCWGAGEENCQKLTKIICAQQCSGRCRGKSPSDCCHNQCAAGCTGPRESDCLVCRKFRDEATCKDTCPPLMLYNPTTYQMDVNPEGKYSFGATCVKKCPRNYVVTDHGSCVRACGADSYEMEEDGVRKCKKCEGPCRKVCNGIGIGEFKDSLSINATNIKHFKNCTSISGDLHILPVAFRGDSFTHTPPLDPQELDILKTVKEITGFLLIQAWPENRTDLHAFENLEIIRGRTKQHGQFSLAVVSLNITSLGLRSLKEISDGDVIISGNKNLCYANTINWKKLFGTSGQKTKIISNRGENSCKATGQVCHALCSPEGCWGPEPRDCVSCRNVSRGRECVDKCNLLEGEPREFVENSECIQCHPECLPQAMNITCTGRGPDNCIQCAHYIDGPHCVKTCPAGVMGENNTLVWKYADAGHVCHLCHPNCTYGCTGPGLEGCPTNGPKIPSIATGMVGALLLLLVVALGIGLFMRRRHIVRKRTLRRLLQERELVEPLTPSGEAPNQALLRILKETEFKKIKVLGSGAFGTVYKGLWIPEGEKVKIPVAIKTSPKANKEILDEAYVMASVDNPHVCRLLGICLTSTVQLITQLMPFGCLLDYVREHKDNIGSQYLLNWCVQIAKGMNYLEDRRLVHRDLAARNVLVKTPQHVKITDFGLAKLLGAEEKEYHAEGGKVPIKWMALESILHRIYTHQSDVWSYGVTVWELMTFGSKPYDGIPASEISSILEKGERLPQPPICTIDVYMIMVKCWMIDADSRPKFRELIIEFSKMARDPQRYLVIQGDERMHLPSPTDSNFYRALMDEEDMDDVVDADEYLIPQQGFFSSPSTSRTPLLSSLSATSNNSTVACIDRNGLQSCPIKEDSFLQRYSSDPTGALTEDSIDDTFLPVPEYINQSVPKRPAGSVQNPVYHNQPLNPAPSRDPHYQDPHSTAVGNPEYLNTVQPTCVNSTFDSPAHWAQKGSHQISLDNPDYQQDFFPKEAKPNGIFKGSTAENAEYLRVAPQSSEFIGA
EGFR, sequence (P00533 25-1210): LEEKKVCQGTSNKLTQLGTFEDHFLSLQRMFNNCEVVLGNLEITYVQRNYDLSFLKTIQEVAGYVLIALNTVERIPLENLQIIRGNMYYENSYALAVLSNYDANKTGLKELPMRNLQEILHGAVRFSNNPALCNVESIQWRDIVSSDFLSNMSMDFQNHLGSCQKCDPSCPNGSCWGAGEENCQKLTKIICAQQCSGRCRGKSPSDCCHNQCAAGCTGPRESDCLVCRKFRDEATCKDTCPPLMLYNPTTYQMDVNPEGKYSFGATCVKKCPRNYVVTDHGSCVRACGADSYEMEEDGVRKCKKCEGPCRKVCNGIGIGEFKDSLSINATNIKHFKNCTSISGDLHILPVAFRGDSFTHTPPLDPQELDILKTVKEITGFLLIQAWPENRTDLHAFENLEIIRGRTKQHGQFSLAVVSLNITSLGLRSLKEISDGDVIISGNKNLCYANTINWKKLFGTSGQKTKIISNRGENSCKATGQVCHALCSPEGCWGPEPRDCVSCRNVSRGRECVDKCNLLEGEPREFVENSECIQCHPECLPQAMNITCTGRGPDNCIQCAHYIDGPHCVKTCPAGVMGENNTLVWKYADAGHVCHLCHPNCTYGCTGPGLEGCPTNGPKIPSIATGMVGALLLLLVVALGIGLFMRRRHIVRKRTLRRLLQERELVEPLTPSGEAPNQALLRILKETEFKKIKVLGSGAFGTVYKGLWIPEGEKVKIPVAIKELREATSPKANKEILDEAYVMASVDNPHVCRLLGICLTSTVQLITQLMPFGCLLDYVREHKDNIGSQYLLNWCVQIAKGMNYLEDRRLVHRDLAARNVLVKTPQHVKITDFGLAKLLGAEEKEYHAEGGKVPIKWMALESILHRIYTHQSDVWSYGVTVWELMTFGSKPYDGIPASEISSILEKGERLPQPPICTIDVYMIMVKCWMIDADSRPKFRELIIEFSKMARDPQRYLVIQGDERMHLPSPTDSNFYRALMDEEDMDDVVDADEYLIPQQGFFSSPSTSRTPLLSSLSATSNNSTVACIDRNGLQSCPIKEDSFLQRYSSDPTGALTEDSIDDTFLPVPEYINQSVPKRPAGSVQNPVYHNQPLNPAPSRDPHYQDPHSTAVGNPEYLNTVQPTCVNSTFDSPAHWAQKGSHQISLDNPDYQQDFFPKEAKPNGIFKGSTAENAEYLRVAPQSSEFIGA

Q: `C=CC(=O)Nc1cccc(Nc2nc(Nc3ccc(N4CCN(C(C)=O)CC4)cc3)ncc2C(F)(F)F)c1` [Compound 8, N-[3-[[2-[4-(4-acetylpiperazin-1-yl)anilino]-5-(trifluoromethyl)pyrimidin-4-yl]amino]phenyl]prop-2-enamide] was tested. Which Kd (EGFR (T790M/L858R)) did it give?
A: 0.54 nM

Q: What about the Kd (EGFR) of the same compound?
A: 84 nM

Q: What about the Kd (EGFR (E746-A750del)) of the same compound?
A: 26 nM

Q: And the “Efficacy in the NCI-H1975 xenograft study (in words)” value [1]?
A: good efficacy

Q: What about the “Tumor growth inhibition (TGI, %) in NCI-H1975 xenograft model” value ([1]; Day 14, 30 mg/kg) of the same compound?
A: TGI = 49%

Q: What does the source list for `C=CC(=O)Nc1cccc(Nc2nc(Nc3ccc(N4CCN(CC)CC4)cc3)ncc2C(F)(F)F)c1` [Compound 9, N-[3-[[2-[4-(4-ethylpiperazin-1-yl)anilino]-5-(trifluoromethyl)pyrimidin-4-yl]amino]phenyl]prop-2-enamide]?
A: Kd (EGFR (T790M/L858R)): 0.037 nM; Kd (EGFR): 15 nM; Kd (EGFR (E746-A750del)): 4 nM; IC50 (NCI-H1975): < 10 nM; Efficacy in the NCI-H1975 xenograft study (in words) [1]: good efficacy; also recorded: much better tumor growth inhibition compared with CO-1686; Tumor growth inhibition (TGI, %) in NCI-H1975 xenograft model ([1]; Day 14, 6 mg/kg): TGI = 76%

Q: Which IC50 (NCI-H1975) does the source give for `C=CC(=O)Nc1cccc(Oc2nc(Nc3ccc(N4CCN(C)CC4)cc3OC)ncc2Cl)c1` [WZ4002, reference compound] here?
A: 67 nM

Q: How did the IC50 (NCI-H1975) turn out when `C=CC(=O)Nc1cccc(Nc2nc(Nc3ccc(N4CCN(C(C)=O)CC4)cc3OC)ncc2C(F)(F)F)c1` [CO-1686, reference compound] was run?
A: 910 nM

Q: And the “Tumor growth inhibition (TGI, %) in NCI-H1975 xenograft model” value ([1]; Day 14, 30 mg/kg)?
A: TGI = 83%

Q: What does the source list for `C=CC(=O)Nc1cccc(Nc2nc(Nc3ccc(N4CCN(CC)CC4)cc3OC)ncc2C(F)(F)F)c1` [Compound 10, N-[3-[[2-[4-(4-ethylpiperazin-1-yl)-2-methoxy-anilino]-5-(trifluoromethyl)pyrimidin-4-yl]amino]phenyl]prop-2-enamide]?
A: Kd (EGFR (T790M/L858R)): 0.28 nM; IC50 (NCI-H1975): 150 nM
